According to ChEMBL document CHEMBL3352634 (Bioorg Med Chem Lett, 2014):
Numbering of substitutions follows the chain as printed.

Columns and labels:
[1] = molecular target: T1, Peroxisome proliferator-activated receptor alpha (Homo sapiens) (UniProt Q07869); assay: Agonist activity at wild-type human PPARalpha LBD expressed in COS7 cells after 12 hrs by Dual-Glo luciferase assay relative to control; type: cell-based; conditions: COS-7
T1 sequence (whole entry): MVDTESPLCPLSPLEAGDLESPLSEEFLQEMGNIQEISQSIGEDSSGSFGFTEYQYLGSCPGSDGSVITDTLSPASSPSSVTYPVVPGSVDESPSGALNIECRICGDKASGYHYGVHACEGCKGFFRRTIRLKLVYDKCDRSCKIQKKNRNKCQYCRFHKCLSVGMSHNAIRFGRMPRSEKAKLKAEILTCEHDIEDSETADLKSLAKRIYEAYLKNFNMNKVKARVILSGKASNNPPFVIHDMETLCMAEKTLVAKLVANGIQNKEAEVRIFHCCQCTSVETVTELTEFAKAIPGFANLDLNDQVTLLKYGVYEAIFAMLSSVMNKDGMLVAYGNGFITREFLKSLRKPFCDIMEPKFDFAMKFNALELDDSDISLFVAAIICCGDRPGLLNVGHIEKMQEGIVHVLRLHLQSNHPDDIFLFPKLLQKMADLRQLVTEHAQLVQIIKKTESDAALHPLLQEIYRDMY

[2] = molecular target: T2, Peroxisome proliferator-activated receptor alpha (Homo sapiens, UniProt Q07869); assay: Agonist activity at wild-type human PPARalpha LBD expressed in COS7 cells after 12 hrs by Dual-Glo luciferase assay; type: cell-based, COS-7
T2 sequence (Q07869 whole entry): T1 sequence (whole entry)

[3] = molecular target: T3, Peroxisome proliferator-activated receptor gamma (Homo sapiens) (UniProt P37231); assay: Agonist activity at human PPARgamma LBD expressed in COS7 cells after 12 hrs by Dual-Glo luciferase assay relative to pioglitazone; type: cell-based; conditions: COS-7
T3 sequence (whole entry): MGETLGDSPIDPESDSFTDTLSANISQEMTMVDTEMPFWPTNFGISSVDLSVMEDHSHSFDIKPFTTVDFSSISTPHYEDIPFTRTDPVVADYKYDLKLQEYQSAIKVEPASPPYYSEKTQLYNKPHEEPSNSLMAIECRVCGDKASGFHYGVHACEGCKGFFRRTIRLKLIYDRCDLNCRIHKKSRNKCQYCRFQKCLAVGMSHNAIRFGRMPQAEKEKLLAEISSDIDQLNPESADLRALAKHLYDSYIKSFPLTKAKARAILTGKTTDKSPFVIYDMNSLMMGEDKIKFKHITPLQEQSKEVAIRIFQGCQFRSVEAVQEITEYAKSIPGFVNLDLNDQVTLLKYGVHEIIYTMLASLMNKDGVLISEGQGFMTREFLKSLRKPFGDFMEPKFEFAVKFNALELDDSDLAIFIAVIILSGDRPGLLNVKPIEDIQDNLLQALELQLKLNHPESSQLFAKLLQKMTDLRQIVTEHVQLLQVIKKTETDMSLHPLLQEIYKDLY

[4] = molecular target: T4, Peroxisome proliferator-activated receptor gamma (Homo sapiens, UniProt P37231); assay: Agonist activity at human PPARgamma LBD expressed in COS7 cells after 12 hrs by Dual-Glo luciferase assay; type: cell-based, COS-7
T4 sequence (P37231 whole entry): T3 sequence (whole entry)

COS-7 = assay: Selectivity ratio of EC50 for human PPARgamma LBD expressed in COS7 cells to EC50 for wild-type human PPARalpha LBD expressed in COS7 cells; type: cell-based
[5] = molecular target: Peroxisome proliferator-activated receptor alpha (Homo sapiens, UniProt Q07869, T279A); assay: Agonist activity at wild-type human PPARalpha Thr279Ala mutant expressed in COS7 cells after 12 hrs by Dual-Glo luciferase assay; type: cell-based, COS-7
Chain of Peroxisome proliferator-activated receptor alpha (Homo sapiens, UniProt Q07869, T279A) (Q07869 whole entry T279A): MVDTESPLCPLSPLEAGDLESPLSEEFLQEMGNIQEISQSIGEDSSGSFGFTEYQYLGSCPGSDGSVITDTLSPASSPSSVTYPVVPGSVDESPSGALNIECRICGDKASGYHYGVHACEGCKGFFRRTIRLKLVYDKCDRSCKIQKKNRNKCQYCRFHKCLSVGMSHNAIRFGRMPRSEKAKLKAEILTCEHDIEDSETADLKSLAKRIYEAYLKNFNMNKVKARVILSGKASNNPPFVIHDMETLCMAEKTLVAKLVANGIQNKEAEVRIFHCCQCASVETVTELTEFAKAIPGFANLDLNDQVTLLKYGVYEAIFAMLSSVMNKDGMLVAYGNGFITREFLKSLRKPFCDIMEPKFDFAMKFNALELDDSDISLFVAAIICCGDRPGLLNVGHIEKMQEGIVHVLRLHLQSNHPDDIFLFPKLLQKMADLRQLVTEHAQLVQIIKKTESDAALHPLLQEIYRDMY

[6] = system: T5, Peroxisome proliferator-activated receptor alpha (Homo sapiens), Q07869 [T279A]; assay: Agonist activity at wild-type human PPARalpha Thr279Ala mutant expressed in COS7 cells after 12 hrs by Dual-Glo luciferase assay relative to control; type: cell-based; conditions: COS-7
T5 sequence (whole entry): T1 sequence (whole entry) with T279A

[7] = molecular target: T1, Peroxisome proliferator-activated receptor alpha (Homo sapiens); assay: Agonist activity at wild-type human PPARalpha LBD expressed in COS7 cells after 12 hrs by Dual-Glo luciferase assay relative to pirinixic acid; type: cell-based; conditions: COS-7

SMILES | %max [1] [%] | EC50 [2] [nM] | %max [3] [%] | EC50 [4] [nM] | EC50 [5] [nM] | %max [6] [%] | %max [7] [%] | Ratio EC50 (COS-7)
CCCCC(Sc1nc(Cl)cc(Nc2ccc(Nc3ccccc3)cc2)n1)C(=O)O (stereo not drawn) | 137 | 350 | 135 | 1060 | – | – | – | –
CCCCC(Sc1nc(Cl)cc(Nc2cccc(C)c2C)n1)C(=O)O (stereo not drawn) | – | – | 120 | – | – | – | – | –
Cc1cccc(Nc2cc(Cl)nc(SCC(=O)O)n2)c1C | – | – | 79 | – | – | – | – | –
O=C(O)CSc1nc(Cl)cc(Nc2ccc(Nc3ccccc3)cc2)n1 | 133 | 12000 | 143 | 12400 | – | – | – | –
CCCCCCC(Sc1nc(Cl)cc(Nc2cccc(C)c2C)n1)C(=O)O (stereo not drawn) | – | 1000 | 139 | – | – | – | 146 | –
CCCCCCC(Sc1nc(Cl)cc(Nc2ccc(Cc3ccccc3)cc2)n1)C(=O)O (stereo not drawn) | 127 | 720 | 158 | 490 | 240 | 83 | – | –

The remaining compounds from weak to strong by EC50 [2], led by results:

%max [1] [%] | EC50 [2] [nM] | %max [3] [%] | EC50 [4] [nM] | EC50 [5] [nM] | %max [6] [%] | %max [7] [%] | SMILES | Ratio EC50 (COS-7)
134 | 280 | 117 | 1200 | 70 | 105 | – | CCCCCCC(Sc1nc(Cl)cc(Nc2ccc(C(=O)c3ccccc3)cc2)n1)C(=O)O (stereo not drawn) | –
155 | 280 | 146 | 2360 | 150 | 87 | – | CCCCCCC(Sc1nc(Cl)cc(Nc2ccc(Oc3ccccc3)cc2)n1)C(=O)O (stereo not drawn) | –
95 | 70 | 126 | 690 | 100 | 115 | – | CCCCCCC(Sc1nc(Cl)cc(Nc2ccc(Nc3ccccc3)cc2)n1)C(=O)O (stereo not drawn) | > 10
